PMC3610419, “A Randomized, Double-Blind Placebo Controlled Trial of Balapiravir, a Polymerase Inhibitor, in Adult Dengue Patients” (The Journal of Infectious Diseases, 2012)

How the values were obtained:
[1] = Predefined clinical and routine laboratory endpoints in adult dengue patients; type: in vivo, human; conditions: for Maximum percentage increase of hematocrit level, Mean / Maximum percentage increase of hematocrit level, Median (IQR): from baseline; for Minimum quality of life score, Mean / Minimum quality of life score, Median (IQR): visual analogue scale 0-100
Description: Key viremia endpoints of the study were as follows: area under the log-transformed viremia curve (AUC) from first dose to the end of study day 7 (study hour 168), calculated on the basis of the trapezoidal rule with values below the limit of detection replaced by half of the detection limit; time to first viremia level of <1000 copies/mL until study day 7; and time to the first negative NS1 test result. Other predefined key endpoints included fever clearance time, defined as the time from the start of treatment to the start of the first 48-hour period during which axillary temperature remained <37.5°C; maximum hematocrit level; maximum percentage increase of hematocrit level from baseline; platelet count nadir; and lowest recorded quality of life score.
Time to event endpoints were compared between treatment groups on the basis of Cox regression and continuous endpoints on the basis of linear regression. Analyses were adjusted for the predose value of the respective endpoint; viremia and NS1 endpoints were additionally adjusted for dengue serotype. For all endpoints, we report P values of a trend test for a dose-response relationship with treatment entered as a continuous variable with values 0 (placebo), 1 (low-dose), and 2 (high-dose) into the regression model.

HCV = conditions: cited from earlier work
[2] = High-dose (3000 mg twice a day, 5 days), n = 22
[3] = Low-dose (1500 mg twice a day, 5 days), n = 10

CC(C)C(=O)OC[C@@]1(N=[N+]=[N-])O[C@@H](n2ccc(N)nc2=O)[C@H](OC(=O)C(C)C)[C@@H]1OC(=O)C(C)C [Balapiravir]
effect on fever clearance time, clinical signs and routine laboratory findings ([1]; 1500 mg or 3000 mg twice daily for 5 days versus placebo): did not affect
Maximum ALT level, Mean [1, 2]: 75.2 IU/L
Maximum ALT level, Median (IQR) [1, 2]: 68.5 (33.3–104.5) IU/L
Maximum AST level, Mean [1, 2]: 118.4 IU/L
Maximum AST level, Median (IQR) [1, 2]: 108.0 (45.0–151.5) IU/L
Maximum INR, Mean [1, 2]: 1.27
Maximum INR, Median (IQR) [1, 2]: 1.17 (1.09–1.22)
Maximum aPTT, Mean [1, 2]: 41.8 s
Maximum aPTT, Median (IQR) [1, 2]: 41.8 (38.3–44.1) s
Maximum recorded hematocrit level, Mean [1, 2]: 44.6%
Maximum recorded hematocrit level, Median (IQR) [1, 2]: 45.1 (41.8–46.1) %
Median fever clearance time (IQR) [1, 2]: 3 (2–4) d
Minimum fibrinogen level, Mean [1, 2]: 1.88 g/L
Minimum fibrinogen level, Median (IQR) [1, 2]: 1.86 (1.60–2.03) g/L
Minimum platelet count, Mean [1, 2]: 54.4 10^9 cells/L
Minimum platelet count, Median (IQR) [1, 2]: 52 (25.5–64.8) 10^9 cells/L
Maximum percentage increase of hematocrit level, Mean [1, 2]: 2.6%
Maximum percentage increase of hematocrit level, Median (IQR) [1, 2]: 1.2 (−4.1–9.2) %
Minimum quality of life score, Mean [1, 2]: 74.45
Minimum quality of life score, Median (IQR) [1, 2]: 77.5 (67.8–82.0)
Maximum ALT level, Mean [1, 3]: 96.3 IU/L
Maximum ALT level, Median (IQR) [1, 3]: 97.5 (58.0–128.8) IU/L
Maximum AST level, Mean [1, 3]: 143.6 IU/L
Maximum AST level, Median (IQR) [1, 3]: 157.5 (116.5–171.5) IU/L
Maximum INR, Mean [1, 3]: 1.17
Maximum INR, Median (IQR) [1, 3]: 1.16 (1.05–1.26)
Maximum aPTT, Mean [1, 3]: 41.3 s
Maximum aPTT, Median (IQR) [1, 3]: 40.6 (39.6–43.1) s
Maximum recorded hematocrit level, Mean [1, 3]: 46.7%
Maximum recorded hematocrit level, Median (IQR) [1, 3]: 45.8 (43.8–49.3) %
Median fever clearance time (IQR) [1, 3]: 3 (2–4) d
Minimum fibrinogen level, Mean [1, 3]: 1.94 g/L
Minimum fibrinogen level, Median (IQR) [1, 3]: 2.08 (1.68–2.25) g/L
Minimum platelet count, Mean [1, 3]: 26.3 10^9 cells/L
Minimum platelet count, Median (IQR) [1, 3]: 23 (16.5–33.0) 10^9 cells/L
Maximum percentage increase of hematocrit level, Mean [1, 3]: 11.5%
Maximum percentage increase of hematocrit level, Median (IQR) [1, 3]: 11.8 (3.1–15.3) %
Minimum quality of life score, Mean [1, 3]: 78.3
Minimum quality of life score, Median (IQR) [1, 3]: 77.0 (69.8–89.0)
antiviral effect (reduction in plasma HCV RNA level) (HCV; 500 mg twice daily): no significant antiviral effect
clinical safety in extended courses (HCV; extended courses (2–3 months) in conjunction with pegylated interferon and ribavirin, HCV infection): clinical safety signals were detected
effect on plasma HCV levels (HCV; monotherapy twice per day for 14 days, chronic HCV): reduced plasma HCV levels in a dose- and time-dependent manner
tolerability (HCV; monotherapy twice per day for 14 days, doses up to 3000 mg, adult male patients): well-tolerated
